Experimental data taken from the SangsterLogP compilation.

Assay: method code SF, from DOI: 10.1021/jm00128a037, PMID: 2754714

First: CC(C)OC(=O)CCc1cc(CN2CCCC2)c(O)c(CN2CCCC2)c1
Second: CC(C)OC(=O)Cc1cc(CN2CCCC2)c(O)c(CN2CCCC2)c1
The logP of the first is higher: -0.21 for the first, -0.41 for the second.

Going from `CCCOC(=O)Cc1cc(CN2CCCC2)c(O)c(CN2CCCC2)c1` to `CCCCOC(=O)Cc1cc(CN2CCCC2)c(O)c(CN2CCCC2)c1`, the logP rises from -0.37 to 0.18.

Going from `CC(C)COC(=O)CCc1cc(CN2CCCC2)c(O)c(CN2CCCC2)c1` to `CC(C)COC(=O)CCCc1cc(CN2CCCC2)c(O)c(CN2CCCC2)c1`, the logP rises from 0.19 to 0.86.

Going from `CCOC(=O)Cc1cc(CN2CCCC2)c(O)c(CN2CCCC2)c1` to `CC(C)COC(=O)Cc1cc(CN2CCCC2)c(O)c(CN2CCCC2)c1`, the logP rises from -0.74 to 0.1.

Going from `CCCCOC(=O)CCCc1cc(CN2CCCC2)c(O)c(CN2CCCC2)c1` to `CCCCOC(=O)CCc1cc(CN2CCCC2)c(O)c(CN2CCCC2)c1`, the logP falls from 1.11 to 0.3.

`CCCOC(=O)CCc1cc(CN2CCCC2)c(O)c(CN2CCCC2)c1` gave a logP of -0.11.
